# Square brackets hold non-standard residues; d marks the D form. * marks the point of attachment. 2Nal = N[C@@H](Cc1ccc2ccccc2c1)C(=O)O; Propionyl = CCC(=O)*; Sar = CNCC(=O)O
# Columns and labels:
# [1] = system: CD2F1 mice exposed to TBI (7 Gy); test: Hematological recovery (peripheral blood counts) after non-lethal 7 Gy TBI; type: in vivo, mouse
# Method: Hematological recovery with RWJ-800088: To study the effects of prophylactic administration of RWJ-800088 on the recovery from hematopoietic injury following TBI, CD2F1 mice (n=10 per group) were treated with either a single dose of RWJ-800088 (0.3 mg/kg) or its vehicle (saline) 24 hours pre-TBI at a non-lethal dose of 7.0 Gy. This dose allows the animals to recover completely from the radiation-induced hematopoietic injury. In addition, a group of sham irradiated mice were given either the drug or saline. Blood collection was performed using a 23 G needle from the submandibular vein after anesthetizing the mice with isoflurane (Hospira Inc., Lake Forest, Ill.) at 2 hours and on days 1, 3, 7, 10, 14, 21, and 30 post-TBI. All mice were allowed to recover fully from anesthesia and monitored closely for any signs of a post-anesthesia reaction or bleeding at the collection site before returned to group housed cages. Approximately 20 μL of blood was collected in EDTA tubes and was continually rotated until CBC/differential analysis was completed using a HESKA Element HT™ 5 Analyzer system (HESKA Corporation, Loveland, Colo.). This CBC/differential analysis included white blood cells (WBC) counts, absolute neutrophil counts (Liem-Moolenaar, Clin Pharmacol Ther. 2008 October; 84(4):481-7), monocytes (MON), lymphocytes (LYM), red blood cells (RBC), hematocrits (HCT), and platelets (PLT) counts.
# [2] = system: C57BL/6 mice exposed to TBI; test: 30-day survival after TBI in C57BL/6 mice; type: in vivo, mouse
# Excerpt: Total Body Irradiation (TBI). Mice were irradiated bilaterally in the Cobalt-60 gamma-irradiation facility at the AFRRI. These animals were placed in well-ventilated plexiglass chambers made specifically for irradiating mice. An alanine/Electron Spin Resonance (ESR) dosimetry system (American Society for Testing and Material Standard E 1607) was used to measure the dose rates in the cores of acrylic phantoms (3 inches long and 1 inch in diameter) located in all empty slots of the exposure rack in the plexiglass chamber. ESR signals were measured with a calibration curve based on standard calibration dosimeters provided by the National Institute of Standard and Technology (NIST, Gaithersburg, Md.). The calibration curve was verified by inter-comparison with the National Physical Laboratory (NPL) in the United Kingdom. The corrections applied to the measured dose rates in phantoms were for decay of the Co-60 source and for a small difference in mass-energy absorption coefficients for water and soft tissue at the Co-60 energy level. Kaplan-Meier survival curves were plotted using GraphPad software; and trend in survival is compared between vehicle and drug-treated group.
# The survival efficacy of RWJ-800088 was tested in C57BL/6 (another strain of mice with different radiation sensitivity compared to CD2F1) in males and females. […] All animals in saline treated groups (males and females) died whereas there was no mortality in RWJ-800088 treated groups 30 days post-TBI. […] All animals in saline treated groups died whereas there was 92% survival observed in the RWJ-800088 (24 h pre-TBI) treated group 30 days post-TBI.
# To confirm the survival benefit provided by RWJ-800088 administration following TBI in another mouse strain with difference in radiation sensitivity, C57BL/6 male mice were irradiated at 8.0 Gy (˜LD70/30) followed by administration of a single subcutaneous dose of RWJ-800088 (1 mg/kg) at 24 h after TBI. The percentage of mice surviving on day 30 post-TBI for the RWJ-800088 treated group was 83% and for the saline treated group it was only 13% (2).
# Mouse = test: Maximum platelet elevation relative to baseline in normal healthy mice, single escalating doses; type: in vivo; design: key to pharmacodynamics (PD) effect class of the dose (beneficial effects on survival): **: large pharmacodynamics (PD) effect; *: modest effect; details: for Mouse Max Platelet Ratio: 3DP03-Piedmont-01
# Excerpt: The ratio of the maximum platelet counts to the baseline platelet counts following single escalating doses of RWJ-800088 to mice, rats, dogs, rhesus monkeys and human healthy volunteers is shown in Table 5. The dose required to achieve a 2-3.5-fold elevation in humans is ˜100-fold lower compared to mice, ˜1,000-fold lower compared to rats and >10,000-fold lower compared to canines and NHPs. […] The species differences in potency has been described for other TPO mimetics in the literature and is attributed to differences in receptor affinity (Erickson-Miller C L, et al. Discovery and characterization of a selective, nonpeptidyl thrombopoietin receptor agonist. Exp. Hematol. 2005; 33:85-93). […] It is discovered that the dose of RWJ-800088 that produces a survival benefit and protects against vascular and organ injury is the dose that produces a 2-4 fold elevation of platelets (Table 6).
# [3] = day 7 post-TBI 7 Gy, 0.3 mg/kg 24 h pre-TBI
# [4] = day 10 post-TBI 7 Gy, 0.3 mg/kg 24 h pre-TBI
# [5] = day 14 post-TBI 7 Gy, 0.3 mg/kg 24 h pre-TBI
# [6] = C57BL/6 Both genders, 7.76 Gy, 0.3 mg/kg single dose, Post 6 hr
# [7] = C57BL/6 Both genders, 7.76 Gy, 0.3 mg/kg single dose, Post 24 hr
# [8] = C57BL/6 Both genders, 7.96 Gy, 0.3 mg/kg single dose, Post 6 hr
# [9] = C57BL/6 Both genders, 7.96 Gy, 0.3 mg/kg single dose, Post 24 hr
# [10] = C57BL/6 F, 8.75 Gy, 3 mg/kg single dose, Pre −24 hr
# [11] = C57BL/6 M, 8.75 Gy, 3 mg/kg single dose, Pre −24 hr
substance,measurement,setting,value
methoxypolyethyleneglycol20000-propionyl-L-Isoleucyl-L-Glutamyl-Glycyl-L-Prolyl-L-Threonyl-L-Leucyl-L-Arginyl-L-Glutaminyl-L-2-Naphthylalanyl-L-Leucyl-L-Alanyl-L-Alanyl-L-Arginyl-Sarcosyl-Ne-(methoxypolyethyleneglycol20000-propionyl-L-Isoleucyl-L-Glutamyl-Glycyl-L-Prolyl-L-Threonyl-L-Leucyl-L-Arginyl-L-Glutaminyl-L-2-Naphthylalanyl-L-Leucyl-L-Alanyl-L-Alanyl-L-Arginyl-Sarcosyl-)-Lysinamide ({mPEG 20 kDa-Propionyl}-IEGPTLRQ[2Nal]LAAR[Sar]K-NH2; also: dimer: second identical mPEG-propionyl chain on Lys Nε of C-terminal lysinamide) [RWJ-800088],recovery from cytopenia of all blood cell counts vs vehicle control,"[1]; 7 Gy, 0.3 mg/kg 24 h pre-TBI",significant
same,Neutrophil (NEU) counts,[1]; [3],0.31±0.026 cells/μL
same,white blood cell (WBC) counts,[1]; [3],0.5±0.037 cells/μL
same,lymphocyte (LYM) vs vehicle-treated group,[1]; day 10 post-TBI 7 Gy,significant (p<0.05) increases
same,platelet (PLT) count,[1]; [4],1565×10^3±148×10^3 cells/μL
same,white blood cell (WBC) counts,[1]; [4],1.39±0.1756 cells/μL
same,RBC counts of irradiated vehicle-treated group compared with irradiated RWJ-800088 treated group,[1]; day 14 post-TBI 7 Gy,same effect was also observed
same,Neutrophil (NEU) counts,[1]; [5],1.54±0.21 cells/μL
same,white blood cell (WBC) counts,[1]; [5],2.43±0.32 cells/μL
same,platelet (PLT) count,"[1]; day 14 post-TBI 7 Gy, 0.3 mg/kg 24 h pre-TBI, irradiated RWJ-800088 treated group",1070×10^3±156×10^3 cells/μL
same,% HCT of irradiated vehicle-treated group compared with irradiated RWJ-800088 treated group,"[1]; day 14 post-TBI 7 Gy, p<0.001",significantly lower
same,monocyte (MON) counts vs irradiated vehicle-treated group,"[1]; days 7, 10 and 14 post-TBI 7 Gy, p<0.001",markedly higher
same,PLT in non-irradiated groups vs saline,"[1]; non-irradiated, days 7 and 10 post-TBI (days 8 and 11 after administration), 0.3 mg/kg",significant (p<0.05) increase in PLT
same,Survival Differential (Treatment-Vehicle),[2]; [6],25%
same,Survival treatment,[2]; [6],100%
same,Survival Differential (Treatment-Vehicle),[2]; [7],15%
same,Survival treatment,[2]; [7],90%
same,Survival Differential (Treatment-Vehicle),[2]; [8],45%
same,Survival treatment,[2]; [8],100%
same,Survival Differential (Treatment-Vehicle),[2]; [9],20%
same,Survival treatment,[2]; [9],75%
same,Survival Differential (Treatment-Vehicle),[2]; [10],100%
same,Survival treatment,[2]; [10],100%
same,Survival Differential (Treatment-Vehicle),[2]; [11],100%
same,Survival treatment,[2]; [11],100%
same,mortality 30 days post-TBI,"[2]; C57BL/6 male and female, 8.75 Gy (LD100/30), 3 mg/kg 24 h prior to irradiation",no mortality
same,percentage of mice surviving on day 30 post-TBI,"[2]; C57BL/6 male, 8.0 Gy (~LD70/30), single SC dose 1 mg/kg at 24 h after TBI",83%
same,Mouse Max Platelet Ratio,Mouse; dose 10 μg/kg,0.9 ± 0.6
same,Mouse Max Platelet Ratio,Mouse; dose 30 μg/kg,1.8 ± 0.4
same,Mouse Max Platelet Ratio,Mouse; dose 100 μg/kg,2.5 ± 1.1
same,Mouse Max Platelet Ratio,Mouse; dose 300 μg/kg,3.9 ± 0.9
same,Mouse Max Platelet Ratio,Mouse; dose 1000 μg/kg,4.3 ± 0.5
same,Mouse Max Platelet Ratio,Mouse; dose 3000 μg/kg,3.4 ± 1
same,Dose for 2.0-4x Platelet Elevation in Healthy Subjects,Mouse; Mice,≥0.1 mg/kg
same,pharmacodynamics (PD) effect class of the dose (beneficial effects on survival),"Mouse; Mouse, dose 100 μg/kg",**
same,Average of the Maximum Platelet Elevation/Baseline Platelet Counts,"Mouse; Mouse, dose 300 μg/kg",3.9
same,pharmacodynamics (PD) effect class of the dose (beneficial effects on survival),"Mouse; Mouse, dose 300 μg/kg",**
same,pharmacodynamics (PD) effect class of the dose (beneficial effects on survival),"Mouse; Mouse, dose 1000 μg/kg",**
same,pharmacodynamics (PD) effect class of the dose (beneficial effects on survival),"Mouse; Mouse, dose 3000 μg/kg",**
same,Platelet Elevation in Non-Irradiated Animals (fold increase over baseline),Mouse; TPOm dose 0.1 mg/kg,2.50 fold increase over baseline
same,Platelet Elevation in Non-Irradiated Animals (fold increase over baseline),Mouse; TPOm dose 0.3 mg/kg,3.90 fold increase over baseline
same,Platelet Elevation in Non-Irradiated Animals (fold increase over baseline),Mouse; TPOm dose 1 mg/kg,4.30 fold increase over baseline
same,Platelet Elevation in Non-Irradiated Animals (fold increase over baseline),"Mouse; TPOm dose 2 mg/kg, imputed as mean of the 1 mg/kg and 3 mg/kg cohorts",3.85 fold increase over baseline
same,Platelet Elevation in Non-Irradiated Animals (fold increase over baseline),Mouse; TPOm dose 3 mg/kg,3.40 fold increase over baseline

# From US20220168392A1 (priority 2019, published 2022)
